Tests used:
Cytomegalovirus [1] = experiment: Inhibitory concentration for peptidolytic activity against cytomegalovirus (CMV) protease at 10 uM.; assay type: functional, organism-based; conditions: Human betaherpesvirus 5
[2] = target: T1, Capsid scaffolding protein (Herpes simplex virus (type 1 / strain 17), UniProt P10210); experiment: Inhibitory concentration for peptidolytic activity against herpes simplex type-1 (HSV-1) protease at 10 uM.; design: species or system Human alphaherpesvirus 1
T1 sequence (P10210 whole entry): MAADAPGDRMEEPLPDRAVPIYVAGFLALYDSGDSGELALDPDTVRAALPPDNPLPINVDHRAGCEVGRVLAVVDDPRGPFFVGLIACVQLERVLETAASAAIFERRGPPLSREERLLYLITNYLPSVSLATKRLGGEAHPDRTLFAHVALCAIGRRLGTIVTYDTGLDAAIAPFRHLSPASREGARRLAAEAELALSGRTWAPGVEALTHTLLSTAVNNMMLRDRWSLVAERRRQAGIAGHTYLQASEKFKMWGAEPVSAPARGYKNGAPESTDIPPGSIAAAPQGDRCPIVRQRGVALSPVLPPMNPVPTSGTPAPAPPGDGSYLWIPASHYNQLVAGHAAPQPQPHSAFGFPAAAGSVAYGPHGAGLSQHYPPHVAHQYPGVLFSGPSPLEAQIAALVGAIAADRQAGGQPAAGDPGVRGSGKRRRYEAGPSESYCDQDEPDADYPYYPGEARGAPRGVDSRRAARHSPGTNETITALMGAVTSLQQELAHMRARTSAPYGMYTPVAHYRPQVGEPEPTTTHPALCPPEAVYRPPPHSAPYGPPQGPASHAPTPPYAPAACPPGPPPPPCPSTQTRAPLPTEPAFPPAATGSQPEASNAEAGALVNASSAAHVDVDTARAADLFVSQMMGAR

Cytomegalovirus [3] = experiment: Percent inhibition for peptidolytic activity against cytomegalovirus (CMV) protease at 10 uM.; assay type: functional; conditions: Human betaherpesvirus 5
Human alphaherpesvirus 2 [4] = experiment: Percent inhibition for peptidolytic activity against herpes simplex type-2(HSV-2) protease at 10 uM.; assay type: functional
[5] = Tested for peptidolytic activity against subtilisin at a concentration of 1 mM; no inhibition
Human alphaherpesvirus 2 [6] = experiment: Inhibitory concentration for peptidolytic activity against herpes simplex type-2(HSV-2) protease at 10 uM.; assay type: functional, organism-based
[7] = Selectivity ratio of inhibitory concentration against elastase and HSV-1
[8] = Inhibitory concentration for peptidolytic activity against elastase
[9] = Half life was determined; assay type: ADME; conditions: rat

## Cc1csc2c(=O)oc([C@H](C)NC(=O)OCc3ccccc3)nc12
Cytomegalovirus [1]
  IC50: 12 µM
[2]
  IC50: 3.1 µM

## Cc1ccc(S(=O)(=O)N[C@@H](C)c2nc3ccsc3c(=O)o2)cc1
Cytomegalovirus [3]
  inhibition at 10 µM: 30%
Human alphaherpesvirus 2 [4]
  inhibition at 10 µM: 13%

## C[C@H](NC(=O)OCc1ccccc1)C(=O)Nc1csc2c(=O)oc([C@H](C)NC(=O)OCc3ccccc3)nc12
Cytomegalovirus [3]
  inhibition at 10 µM: 43%
Human alphaherpesvirus 2 [4]
  inhibition at 10 µM: 50%

## C[C@H](NC(=O)OCc1ccccc1)c1nc2ccsc2c(=O)o1
Cytomegalovirus [1]
  IC50: 9.4 µM
[5]
  IC50: Not Active
Human alphaherpesvirus 2 [6]
  IC50: 0.42 µM
[7]
  Ratio: 250
[8]
  IC50: 120 µM
[2]
  IC50: 0.48 µM
[9]
  half-life: > 100 h

## CC(C)[C@H](NC(=O)OCc1ccccc1)c1nc2ccsc2c(=O)o1
Cytomegalovirus [1]
  IC50: 26 µM
[2]
  IC50: 31 µM

## C[C@H](NC(=O)OCc1ccccc1)c1nc2ccccc2c(=O)o1
[7]
  Ratio: 1.1
[8]
  IC50: 45 µM
[9]
  half-life: 14 h

## O=C(N[C@@H](Cc1ccccc1)c1nc2ccsc2c(=O)o1)OCc1ccccc1
Cytomegalovirus [1]
  IC50: 3.5 µM
[2]
  IC50: > 300 µM

## C[C@H](NC(=O)OCc1ccccc1)c1nc2c(Cl)c(NC(=O)[C@@H](C)NC(=O)OCc3ccccc3)sc2c(=O)o1
Cytomegalovirus [1]
  IC50: 1.3 µM
Human alphaherpesvirus 2 [6]
  IC50: 1.6 µM

## C[C@H](NC(=O)NCc1ccccc1)c1nc2ccsc2c(=O)o1
Cytomegalovirus [3]
  inhibition at 10 µM: 20%
Human alphaherpesvirus 2 [4]
  inhibition at 10 µM: 1%

## NC(=O)C[C@H](NC(=O)OCc1ccccc1)c1nc2ccsc2c(=O)o1
Cytomegalovirus [1]
  IC50: 18 µM
[2]
  IC50: 10 µM

## O=C(N[C@@H](CO)c1nc2ccsc2c(=O)o1)OCc1ccccc1
Cytomegalovirus [1]
  IC50: 20 µM
Human alphaherpesvirus 2 [6]
  IC50: 0.33 µM
[2]
  IC50: 0.65 µM

## C[C@H](Nc1ccc([N+](=O)[O-])cc1[N+](=O)[O-])c1nc2ccsc2c(=O)o1
Cytomegalovirus [1]
  IC50: 3.3 µM
Human alphaherpesvirus 2 [6]
  IC50: 2.9 µM

## Cc1cccc2nc([C@H](C)NC(=O)OCc3ccccc3)oc(=O)c12
[7]
  Ratio: 0.002
[8]
  IC50: 0.22 µM
[9]
  half-life: 33 h

## C[C@H](NC(=O)OC(C)(C)C)c1nc2ccsc2c(=O)o1
Cytomegalovirus [3]
  inhibition at 10 µM: 15%
Human alphaherpesvirus 2 [4]
  inhibition at 10 µM: 32%

## NC(=O)CC[C@H](NC(=O)OCc1ccccc1)c1nc2ccsc2c(=O)o1
[2]
  IC50: 6.3 µM

## C[C@H](NC(=O)Nc1ccccc1)c1nc2ccsc2c(=O)o1
Cytomegalovirus [1]
  IC50: > 100 µM
Human alphaherpesvirus 2 [6]
  IC50: > 100 µM

## C[C@H](NC(=O)OCc1ccccc1)c1nc2cc(-c3ccccc3)sc2c(=O)o1
Cytomegalovirus [1]
  IC50: > 300 µM
[2]
  IC50: 3.3 µM

## O=C(NCc1nc2ccsc2c(=O)o1)OCc1ccccc1
Cytomegalovirus [1]
  IC50: 45 µM
[2]
  IC50: 2.7 µM

From ChEMBL document CHEMBL1130472, “Potent selective thienoxazinone inhibitors of herpes proteases” (Bioorg Med Chem Lett, 1997)
